These results are taken from patent US11814444B2, “Cyclic polypeptides for PCSK9 inhibition” (Ra Pharmaceuticals, Inc., priority 2018, dated 2023).

Molecules are shown by their SMILES. Numbered stars: 1 amine (or outer) side, 2 acyl side, 3 side chain; on linkers, the order of the positions; unused ones are H or OH. Bridge positions count the residues as written; N and C are the ends. Square brackets hold non-standard residues; d marks the D form. Peptide text beside a SMILES is read from it. Trp(7-aza) = N[C@@H](Cc1c[nH]c2ncccc12)C(=O)O; X7 = O=C(CCSCc1cccc(CSCCN[*:1])c1)[*:2]; 1Nal = N[C@@H](Cc1cccc2ccccc12)C(=O)O; mXylylene = c1cc(C[*:1])cc(C[*:2])c1; Gly(octyl) = CCCCCCCC[C@H](N)C(=O)O; 3Thi = N[C@@H](Cc1ccsc1)C(=O)O; Chg = N[C@H](C(=O)O)C1CCCCC1; PEG4 = NCCOCCOCCOCCOCCC(=O)O; Tle = CC(C)(C)[C@H](N)C(=O)O; αMeV = CC(C)[C@](C)(N)C(=O)O; NMeV = CN[C@H](C(=O)O)C(C)C; hSer = N[C@@H](CCO)C(=O)O; Nva = CCC[C@H](N)C(=O)O; Aib = CC(C)(N)C(=O)O; Mpa = O=C(O)CCS

This assay has as its target human PCSK9 / human LDLR EGFa domain interaction (Homo sapiens, UniProt Q8NBP7). The assay is described as follows: TR-FRET assay of inhibition of the PCSK9-LDLR protein-protein interaction. The note with it: 20 nM avitag-biotinylated human PCSK9, 20 nM his-tagged human LDLR EGFa domain, 2 hours, room temperature. It counts as binding. The protocol:
A time-resolved fluorescence resonance energy (TR-FRET) assay was used to measure inhibition of the PCSK9-LDLR protein-protein interaction. Briefly, 20 nM avitag-biotinylated human PCSK9 was incubated with 20 nM his-tagged human LDLR EGFa domain in the presence of 5 nM LANCE Ulight Streptavidin (Perkin Elmer) and 5 nM europium-Anti-6×His (Perkin Elmer) for 2 hours covered at room temperature in buffer containing 50 mM HEPES, 150 mM NaCl, 5 mM CaCl2), 0.01% BSA and 0.01% Surfactant P20. Compounds were tested in dose-response and concentrations giving half-maximal inhibition calculated using a 4-parameter fit equation.
In general terms: TR-FRET usually uses a lanthanide donor and a delayed reading to cut background.

Chain of human PCSK9 / human LDLR EGFa domain interaction (Q8NBP7 153-692): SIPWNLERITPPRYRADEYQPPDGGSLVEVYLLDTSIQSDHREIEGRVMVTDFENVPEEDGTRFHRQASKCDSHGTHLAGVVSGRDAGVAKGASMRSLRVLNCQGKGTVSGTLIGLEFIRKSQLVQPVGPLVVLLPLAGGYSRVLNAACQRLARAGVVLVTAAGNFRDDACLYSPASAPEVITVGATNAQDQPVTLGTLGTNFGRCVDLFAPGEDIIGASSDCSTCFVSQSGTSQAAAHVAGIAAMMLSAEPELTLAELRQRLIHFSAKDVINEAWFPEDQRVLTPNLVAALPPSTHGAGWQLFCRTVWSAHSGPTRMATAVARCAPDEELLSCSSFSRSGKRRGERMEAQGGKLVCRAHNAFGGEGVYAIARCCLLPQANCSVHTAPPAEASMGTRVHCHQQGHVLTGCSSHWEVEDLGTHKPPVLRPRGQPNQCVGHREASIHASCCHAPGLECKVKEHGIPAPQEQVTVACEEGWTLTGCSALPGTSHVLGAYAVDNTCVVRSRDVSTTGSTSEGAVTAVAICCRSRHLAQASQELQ
Chain of human PCSK9 / human LDLR EGFa domain interaction (Q8NBP7 31-152 partner limits assumed): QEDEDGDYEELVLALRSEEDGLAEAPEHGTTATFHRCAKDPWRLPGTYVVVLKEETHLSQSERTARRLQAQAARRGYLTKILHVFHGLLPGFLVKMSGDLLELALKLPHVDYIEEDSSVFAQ

As usually defined, the IC50 is the concentration that inhibits the measured activity by half. Low readings indicate inhibition by little substance, high ones a need for much substance. The molecule `CCC[C@@H]1NC(=O)[C@H](Cc2c[nH]c3ncccc23)NC(=O)[C@H]([C@@H](C)O)NC(=O)[C@H](Cc2ccsc2)NC(=O)[C@H](Cc2ccc(O)cc2)NC(=O)[C@H](C(C)(C)C)NC(=O)CCSCc2cccc(c2)CSC[C@@H](C(N)=O)NC(=O)[C@H]([C@@H](C)O)NC(=O)[C@H](CCC)NC(=O)[C@H](Cc2ccc(O)cc2)NC(=O)[C@H](CCC(=O)O)NC1=O` [Compound 119] ([Mpa][Tle]Y[3Thi]T[Trp(7-aza)][Nva]EY[Nva]TC-NH2; linker 1-12 via mXylylene) gave a concentration for half-maximal inhibition (IC50) of 1000 to 21000 nM.

In turn, `CC(C)[C@H]1C(=O)N[C@@H](Cc2ccccc2)C(=O)N2CCC[C@H]2C(=O)N[C@@H]([C@@H](C)O)C(=O)N[C@@H](Cc2cccc3ccccc23)C(=O)NC(C)(C)C(=O)N[C@@H](C)C(=O)N[C@@H](Cc2ccccc2)C(=O)N[C@@](C)(C(C)C)C(=O)N[C@@H](C)C(=O)NCCSCc2cccc(c2)CSCCC(=O)N1C` [Compound 143] (cyclo([1Nal][Aib]AF[αMeV]A[X7][NMeV]FPT)) showed a half-maximal inhibitory concentration (IC50) of 1000 to 21000 nM.

Molecule `CCC[C@H](NC(C)=O)C(=O)N[C@H]1CSCc2cccc(c2)CSC[C@@H](C(N)=O)NC(=O)[C@H]([C@@H](C)O)NC(=O)[C@H](C2CCCCC2)NC(=O)[C@H](Cc2c[nH]c3ncccc23)NC(=O)[C@H](Cc2c[nH]cn2)NC(=O)[C@H](CCC(=O)O)NC(=O)[C@H](Cc2c[nH]c3ncccc23)NC(=O)[C@H]([C@@H](C)O)NC(=O)[C@@H]2CCCN2C(=O)[C@H](Cc2ccc(O)cc2)NC(=O)[C@H](C(C)(C)C)NC1=O` [Compound 152] (Ac-[Nva]C[Tle]YPT[Trp(7-aza)]EH[Trp(7-aza)][Chg]TC-NH2; linker 2-13 via mXylylene) gave an IC50 of 1 to 100 nM.

`CCC[C@H](NC(C)=O)C(=O)N[C@H]1CSCc2cccc(c2)CSC[C@@H](C(N)=O)NC(=O)[C@H]([C@@H](C)O)NC(=O)[C@H](CCC)NC(=O)[C@H](Cc2ccc(O)cc2)NC(=O)[C@H](CCC(=O)O)NC(=O)[C@H](CCC)NC(=O)[C@H](Cc2c[nH]c3ncccc23)NC(=O)[C@H]([C@@H](C)O)NC(=O)[C@@H]2CCCN2C(=O)[C@H](Cc2ccc(O)cc2)NC(=O)[C@H](C(C)(C)C)NC1=O` [Compound 153] (Ac-[Nva]C[Tle]YPT[Trp(7-aza)][Nva]EY[Nva]TC-NH2; linker 2-13 via mXylylene) gave a 50% inhibitory concentration (IC50) of 100 to 1000 nM.

As for `C[C@@H](O)[C@@H]1NC(=O)[C@H](C2CCCCC2)NC(=O)[C@H](Cc2c[nH]c3ncccc23)NC(=O)[C@H](Cc2c[nH]cn2)NC(=O)[C@H](CCC(=O)O)NC(=O)[C@H](Cc2c[nH]c3ncccc23)NC(=O)[C@H]([C@@H](C)O)NC(=O)[C@@H]2CCCN2C(=O)[C@H](Cc2ccc(O)cc2)NC(=O)[C@H](C(C)(C)C)NC(=O)CCSCc2cccc(c2)CSC[C@@H](C(N)=O)NC1=O` [Compound 154] ([Mpa][Tle]YPT[Trp(7-aza)]EH[Trp(7-aza)][Chg]TC-NH2; linker 1-12 via mXylylene), the half-maximal inhibitory concentration (IC50) lay within 100 to 1000 nM.

Molecule `CCC[C@@H]1NC(=O)[C@H](Cc2c[nH]c3ncccc23)NC(=O)[C@H]([C@@H](C)O)NC(=O)[C@@H]2CCCN2C(=O)[C@H](Cc2ccc(O)cc2)NC(=O)[C@H](C(C)(C)C)NC(=O)CCSCc2cccc(c2)CSC[C@@H](C(N)=O)NC(=O)[C@H]([C@@H](C)O)NC(=O)[C@H](CCC)NC(=O)[C@H](Cc2ccc(O)cc2)NC(=O)[C@H](C)NC1=O` [Compound 157] ([Mpa][Tle]YPT[Trp(7-aza)][Nva]AY[Nva]TC-NH2; linker 1-12 via mXylylene) came in with a 50% inhibitory concentration (IC50) of 100 to 1000 nM.

Molecule `CCC[C@@H]1NC(=O)[C@H](Cc2c[nH]c3ncccc23)NC(=O)[C@H]([C@@H](C)O)NC(=O)[C@@H]2CCCN2C(=O)[C@H](Cc2ccc(O)cc2)NC(=O)[C@H](C(C)(C)C)NC(=O)CCSCc2cccc(c2)CSC[C@@H](C(N)=O)NC(=O)[C@H]([C@@H](C)O)NC(=O)[C@H](CCC)NC(=O)[C@H](Cc2ccc(O)cc2)NC(=O)[C@H](CCO)NC1=O` [Compound 158] ([Mpa][Tle]YPT[Trp(7-aza)][Nva][hSer]Y[Nva]TC-NH2; linker 1-12 via mXylylene) registered an IC50 of 1000 to 21000 nM.

`CCC[C@@H]1NC(=O)[C@H](Cc2c[nH]c3ncccc23)NC(=O)[C@H]([C@@H](C)O)NC(=O)[C@@H]2CCCN2C(=O)[C@H](Cc2ccc(O)cc2)NC(=O)[C@H](C(C)(C)C)NC(=O)CCSCc2cccc(c2)CSC[C@@H](C(N)=O)NC(=O)[C@H](CCC(=O)O)NC(=O)[C@H](CCC)NC(=O)[C@H](Cc2ccc(O)cc2)NC(=O)[C@H](C)NC1=O` [Compound 159] ([Mpa][Tle]YPT[Trp(7-aza)][Nva]AY[Nva]EC-NH2; linker 1-12 via mXylylene) displayed a concentration for half-maximal inhibition (IC50) of 1000 to 21000 nM.

Consider `CCC[C@@H]1NC(=O)[C@H](Cc2c[nH]c3ncccc23)NC(=O)[C@H]([C@@H](C)O)NC(=O)[C@@H]2CCCN2C(=O)[C@H](Cc2ccc(O)cc2)NC(=O)[C@H](C(C)(C)C)NC(=O)CCSCc2cccc(c2)CSC[C@@H](C(N)=O)NC(=O)[C@H]([C@@H](C)O)NC(=O)[C@H](CCC(=O)O)NC(=O)[C@H](Cc2ccc(O)cc2)NC(=O)[C@H](C)NC1=O` [Compound 160] ([Mpa][Tle]YPT[Trp(7-aza)][Nva]AYETC-NH2; linker 1-12 via mXylylene), for which the IC50 is 100 to 1000 nM.

Regarding `CCC[C@@H]1NC(=O)[C@H](Cc2c[nH]c3ncccc23)NC(=O)[C@H]([C@@H](C)O)NC(=O)[C@@H]2CCCN2C(=O)[C@H](Cc2ccc(O)cc2)NC(=O)[C@H](C(C)(C)C)NC(=O)CCSCc2cccc(c2)CSC[C@@H](C(=O)NCCOCCOCCOCCOCCC(N)=O)NC(=O)[C@H]([C@@H](C)O)NC(=O)[C@H](CCC)NC(=O)[C@H](Cc2ccc(O)cc2)NC(=O)[C@H](C)NC1=O` [Compound 163] ([Mpa][Tle]YPT[Trp(7-aza)][Nva]AY[Nva]TC[PEG4]-NH2; linker 1-12 via mXylylene), the IC50 was 100 to 1000 nM.

In the case of `CCCCCCCC[C@@H]1NC(=O)[C@H](Cc2c[nH]c3ncccc23)NC(=O)[C@H]([C@@H](C)O)NC(=O)[C@@H]2CCCN2C(=O)[C@H](Cc2ccc(O)cc2)NC(=O)[C@H](C(C)(C)C)NC(=O)CCSCc2cccc(c2)CSC[C@@H](C(N)=O)NC(=O)[C@H]([C@@H](C)O)NC(=O)[C@H](CCC)NC(=O)[C@H](Cc2ccc(O)cc2)NC(=O)[C@H](C)NC1=O` [Compound 169] ([Mpa][Tle]YPT[Trp(7-aza)][Gly(octyl)]AY[Nva]TC-NH2; linker 1-12 via mXylylene), the IC50 lay in the range of 100 to 1000 nM.

Consider `CCC[C@@H]1NC(=O)[C@H](Cc2c[nH]c3ncccc23)NC(=O)[C@H]([C@@H](C)O)NC(=O)[C@@H]2CCCN2C(=O)[C@H](Cc2ccc(O)cc2)NC(=O)[C@H](C(C)(C)C)NC(=O)CCSCc2cccc(c2)CSC[C@@H](C(N)=O)NC(=O)[C@H](CCC(=O)O)NC(=O)[C@H](C2CCCCC2)NC(=O)[C@H](Cc2ccc(O)cc2)NC(=O)[C@H](C)NC1=O` [Compound 171] ([Mpa][Tle]YPT[Trp(7-aza)][Nva]AY[Chg]EC-NH2; linker 1-12 via mXylylene), for which the half-maximal inhibitory concentration (IC50) is 1000 to 21000 nM.

The molecule `CCC[C@@H]1NC(=O)[C@H](Cc2ccc(O)cc2)NC(=O)[C@H](C)NC(=O)[C@H](CCC)NC(=O)[C@H](Cc2c[nH]c3ncccc23)NC(=O)[C@H]([C@@H](C)O)NC(=O)[C@@H]2CCCN2C(=O)[C@H](Cc2ccc(O)cc2)NC(=O)[C@H](C(C)(C)C)NC(=O)CCSCc2cccc(c2)CSC[C@@H](C(N)=O)NC(=O)[C@H](C)NC1=O` [Compound 172] ([Mpa][Tle]YPT[Trp(7-aza)][Nva]AY[Nva]AC-NH2; linker 1-12 via mXylylene) had an IC50 of 1000 to 21000 nM.
